Publication PMC8292346, “Dysfunction of the key ferroptosis-surveilling systems hypersensitizes mice to tubular necrosis during acute kidney injury” (Nature Communications, 2021)

Test: Inhibited co-autoxidation of egg phosphatidylcholine liposomes and STY-BODIPY (radical-trapping antioxidant activity)
Description: Inhibitors were then added (5 μl aliquots) at desired concentrations to the appropriate wells followed by vigorous mixing. […] Experiments were performed in triplicate using HPLC grade solvents and kinetic data is given as an average of three independent measurements. […]

## 2,2,7,8-pentamethyl-6-chromanol [PMC, reference compound]
Time 53820 s
  ΔSTY-BODIPY: -0.366 µM
Time 53880 s
  ΔSTY-BODIPY: -0.3653 µM
Time 53940 s
  ΔSTY-BODIPY: -0.3652 µM
Time 54000 s
  ΔSTY-BODIPY: -0.3628 µM
